Test results from patent EP0584797A2, “Novel cephalosporin compounds and processes for the preparation thereof” (LUCKY LTD., priority 1992, dated 1994).
≈ marks a conversion by molar mass, not a printed value.

Key:
Assay in all cases: minimal inhibitory concentration, two-fold agar dilution
Type in all cases: cell-based
[1] = system: Staphylococcus epidermidis ATCC 12228; details: ATCC12228, Muller-Hinton agar, 37°C, 20 hours, read-out: MIC values against the standard strains
Method in brief: (§1)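 Compounds were serially diluted two-fold into Mueller-Hinton agar, and each plate was spot-inoculated with the test strain at 10⁷ CFU per ml. Plates were incubated at 37°C for 20 hours before MIC values were read.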

[2] = system: Bacillus cereus ATCC 11778; details: ATCC11778, Muller-Hinton agar, 37°C, 20 hours, read-out: MIC values against the standard strains
Method in brief: as §1

[3] = system: Salmonella typhimurium ATCC 14028; details: Salmonella enterica; Muller-Hinton agar; 37°C; 20 hours; read-out: MIC values against the standard strains
Method in brief: as §1

[4] = system: Shigella flexneri ATCC 11836; details: ATCC11836, Muller-Hinton agar, 37°C, 20 hours, read-out: MIC values against the standard strains
Method in brief: as §1

[5] = system: Streptococcus faecalis ATCC 29212; details: Enterococcus faecalis, ATCC29212; Muller-Hinton agar; 37°C; 20 hours; read-out: MIC values against the standard strains
Method in brief: as §1

[6] = system: Pseudomonas aeruginosa ATCC 27853; details: ATCC27853, Muller-Hinton agar, 37°C, 20 hours, read-out: MIC values against the standard strains
Method in brief: as §1

[7] = system: Klebsiella pneumoniae ATCC 10031; details: ATCC10031, Muller-Hinton agar, 37°C, 20 hours, read-out: MIC values against the standard strains
Method in brief: as §1

[8] = system: Enterobacter cloacae ATCC 27508; details: ATCC27508, Muller-Hinton agar, 37°C, 20 hours, read-out: MIC values against the standard strains
Method in brief: as §1

[9] = system: Providencia rettgeri ATCC 9250; details: ATCC9250, Muller-Hinton agar, 37°C, 20 hours, read-out: MIC values against the standard strains
Method in brief: as §1

[10] = system: Escherichia coli ATCC 25922; details: ATCC25922, Muller-Hinton agar, 37°C, 20 hours, read-out: MIC values against the standard strains
Method in brief: as §1

[11] = system: Shigella sonnei ATCC 11060; details: ATCC11060, Muller-Hinton agar, 37°C, 20 hours, read-out: MIC values against the standard strains
Method in brief: as §1

[12] = system: Serratia marcescens ATCC 27117; details: ATCC27117, Muller-Hinton agar, 37°C, 20 hours, read-out: MIC values against the standard strains
Method in brief: as §1

[13] = system: Morganella morganii ATCC 8076h; details: ATCC8076H, Muller-Hinton agar, 37°C, 20 hours, read-out: MIC values against the standard strains
Method in brief: as §1

[14] = system: Proteus vulgaris ATCC 6059; details: ATCC6059, Muller-Hinton agar, 37°C, 20 hours, read-out: MIC values against the standard strains
Method in brief: as §1

[15] = system: Enterobacter aerogenes ATCC 29751; details: Klebsiella aerogenes, ATCC29751; Muller-Hinton agar; 37°C; 20 hours; read-out: MIC values against the standard strains
Method in brief: as §1

[16] = system: Citrobacter freundii ATCC 8090; details: ATCC8090, Muller-Hinton agar, 37°C, 20 hours, read-out: MIC values against the standard strains
Method in brief: as §1

[17] = system: Escherichia coli ATCC 10536; details: ATCC10536, Muller-Hinton agar, 37°C, 20 hours, read-out: MIC values against the standard strains
Method in brief: as §1

[18] = system: Staphylococcus aureus ATCC 6538p; details: ATCC6538P, Muller-Hinton agar, 37°C, 20 hours, read-out: MIC values against the standard strains
Method in brief: as §1

[19] = system: Bacillus megaterium ATCC 9885; details: Priestia megaterium, ATCC9885; Muller-Hinton agar; 37°C; 20 hours; read-out: MIC values against the standard strains
Method in brief: as §1

[20] = system: Pseudomonas aeruginosa ATCC 25619; details: ATCC25619, Muller-Hinton agar, 37°C, 20 hours, read-out: MIC values against the standard strains
Method in brief: as §1

[21] = system: Acinetobacter calcoaceticus ATCC 15437; details: ATCC15437, Muller-Hinton agar, 37°C, 20 hours, read-out: MIC values against the standard strains
Method in brief: as §1

[22] = system: Micrococcus luteus ATCC 9341; details: ATCC9341, Muller-Hinton agar, 37°C, 20 hours, read-out: MIC values against the standard strains
Method in brief: as §1

[23] = system: Staphylococcus aureus ATCC 10537; details: ATCC10537, Muller-Hinton agar, 37°C, 20 hours, read-out: MIC values against the standard strains
Method in brief: as §1

[24] = system: Pseudomonas aeruginosa ATCC 10145; details: ATCC10145, Muller-Hinton agar, 37°C, 20 hours, read-out: MIC values against the standard strains
Method in brief: as §1

[25] = system: Proteus mirabilis ATCC 25933; details: ATCC25933, Muller-Hinton agar, 37°C, 20 hours, read-out: MIC values against the standard strains
Method in brief: as §1

Structure (SMILES) | MIC [1] [µg/mL] | MIC [2] [µg/mL] | MIC [3] [µg/mL] | MIC [4] [µg/mL] | MIC [5] [µg/mL] | MIC [6] [µg/mL] | MIC [7] [µg/mL] | MIC [8] [µg/mL] | MIC [9] [µg/mL] | MIC [10] [µg/mL] | MIC [11] [µg/mL] | MIC [12] [µg/mL] | MIC [13] [µg/mL] | MIC [14] [µg/mL] | MIC [15] [µg/mL] | MIC [16] [µg/mL] | MIC [17] [µg/mL] | MIC [18] [µg/mL] | MIC [19] [µg/mL] | MIC [20] [µg/mL] | also measured
CCO/N=C(\C(=O)N[C@@H]1C(=O)N2C(C(=O)[O-])=C(CSc3nc(N)c(N)c(N)[n+]3CC)CS[C@H]12)c1csc(N)n1 [Example 13, 7-[(Z)-2-(2-aminothiazol-4-yl)-2-(ethoxyimino)acetamido]-3-(4,5,6-triamino-1-ethylpyrimidinium-2-yl)thiomethyl-3-cephem-4-carboxylate] | 0.13 (≈ 0.219 µM) | 64 (≈ 108 µM) | 1 (≈ 1.68 µM) | 0.5 (≈ 0.841 µM) | > 128 | 32 (≈ 53.8 µM) | 0.13 (≈ 0.219 µM) | 0.016 (≈ 0.0269 µM) | 0.13 (≈ 0.219 µM) | 0.063 (≈ 0.106 µM) | 0.5 (≈ 0.841 µM) | 1 (≈ 1.68 µM) | 0.13 (≈ 0.219 µM) | 2 (≈ 3.36 µM) | 2 (≈ 3.36 µM) | 0.5 (≈ 0.841 µM) | 0.063 (≈ 0.106 µM) | 0.5 (≈ 0.841 µM) | 0.13 (≈ 0.219 µM) | 8 (≈ 13.5 µM) | MIC [21]: 16 µg/mL (≈ 26.9 µM); MIC [22]: 0.13 µg/mL (≈ 0.219 µM); MIC [23]: 0.25 µg/mL (≈ 0.42 µM); MIC [24]: 64 µg/mL (≈ 108 µM); MIC [25]: 2 µg/mL (≈ 3.36 µM)
CCO/N=C(\C(=O)N[C@@H]1C(=O)N2C(C(=O)[O-])=C(CSc3nc(N)c(N)c(N)[n+]3CC)CS[C@H]12)c1nsc(N)n1 [Example 15, 7-[(Z)-2-(5-amino-1,2,4-thiadiazol-3-yl)-2-(ethoxyimino)acetamido]-3-(4,5,6-triamino-1-ethylpyrimidinium-2-yl)thiomethyl-3-cephem-4-carboxylate] | 0.25 (≈ 0.42 µM) | 32 (≈ 53.7 µM) | 0.5 (≈ 0.839 µM) | 0.25 (≈ 0.42 µM) | 32 (≈ 53.7 µM) | 2 (≈ 3.36 µM) | 0.016 (≈ 0.0269 µM) | 0.031 (≈ 0.052 µM) | ≤ 0.008 | 0.063 (≈ 0.106 µM) | 0.25 (≈ 0.42 µM) | 0.5 (≈ 0.839 µM) | ≤ 0.008 | 1 (≈ 1.68 µM) | 0.063 (≈ 0.106 µM) | 0.5 (≈ 0.839 µM) | 0.063 (≈ 0.106 µM) | 0.5 (≈ 0.839 µM) | 0.13 (≈ 0.218 µM) | 1 (≈ 1.68 µM) | MIC [21]: 4 µg/mL (≈ 6.71 µM); MIC [22]: 0.063 µg/mL (≈ 0.106 µM); MIC [23]: 0.25 µg/mL (≈ 0.42 µM); MIC [24]: 8 µg/mL (≈ 13.4 µM); MIC [25]: 1 µg/mL (≈ 1.68 µM)
CC[n+]1ccc(N)nc1SCC1=C(C(=O)[O-])N2C(=O)[C@@H](NC(=O)/C(=N\OC(C)(C)C(=O)O)c3csc(N)n3)[C@H]2SC1 [Example 12, 7-[(Z)-2-(2-aminothiazol-4-yl)-2-(carboxyprop-2-oxyimino)acetamido]-3-(4-amino-1-ethylpyrimidinium-2-yl)thiomethyl-3-cephem-4-carboxylate] | 2 (≈ 3.21 µM) | 128 (≈ 206 µM) | 1 (≈ 1.61 µM) | 0.25 (≈ 0.401 µM) | 64 (≈ 103 µM) | 8 (≈ 12.8 µM) | ≤ 0.008 | 0.031 (≈ 0.0498 µM) | ≤ 0.008 | 0.063 (≈ 0.101 µM) | 0.5 (≈ 0.803 µM) | 0.5 (≈ 0.803 µM) | 0.016 (≈ 0.0257 µM) | 1 (≈ 1.61 µM) | 2 (≈ 3.21 µM) | 0.13 (≈ 0.209 µM) | 0.063 (≈ 0.101 µM) | 4 (≈ 6.42 µM) | 0.5 (≈ 0.803 µM) | 2 (≈ 3.21 µM) | MIC [21]: 8 µg/mL (≈ 12.8 µM); MIC [22]: 0.5 µg/mL (≈ 0.803 µM); MIC [23]: 2 µg/mL (≈ 3.21 µM); MIC [24]: 16 µg/mL (≈ 25.7 µM); MIC [25]: 1 µg/mL (≈ 1.61 µM)
